Source: US20250084062A1, “SUBSTITUTED QUINOLINE DERIVATIVE” (ASTELLAS PHARMA INC., priority 2021, published 2025)
Counter-ions that a name gives are not always drawn.

Tested on: acetylcholine receptor clustering in C2Cl2 cells
Assay: Induction of acetylcholine receptor clustering in mouse myoblasts C2Cl2 cells (Test Example 1)
Type: cell-based
Details: for Emax / EC50: Mus musculus; for Emax: Myoblast, maximum response, area of acetylcholine receptor cluster region vs 10 ng/ml Agrin (100%), 0.1 ng/ml Agrin = 0%, read-out: Max; for EC50: Myotube, C2Cl2 myotubes, with 0.1 ng/ml Agrin, concentration giving 50% of cluster area of 10 ng/ml Agrin (100%), read-out: EC50
Description: Test Example 1: Evaluation of the Induction of Acetylcholine Receptor Clustering in Mouse Myoblasts C2Cl2 Cells
Induction of acetylcholine receptor clustering by the test compound was evaluated by using fluorescently-labeled Bungarotoxin to image and quantify the acetylcholine receptor cluster region induced by the differentiation of myoblasts into myotubes, and measure the change in area. The following test method was optimized with reference to various reports including FEBS let., 586, 3111-3116 (2012). When a concentration response curve is obtained by plotting the logarithmic concentration of the test compound on the horizontal axis and the ratio of the area of acetylcholine receptor cluster region on the vertical axis, the inducing action of the test compound can be determined.
A concentration response curve as an index indicating acetylcholine receptor clustering inducing action of the test compound in mouse C2Cl2 cells was prepared. C2Cl2 cells (ATCC Number: CRL-1772) were seeded at about 5000 cells/well on a 384-well plate (354667; Corning) coated with type I collagen and allowed to incubate at 37 degrees Celsius overnight in DMEM+20% FBS+1% penicillin/streptomycin medium. The following day, the medium was removed and replaced with a differentiation medium containing DMEM+2% FBS+1% penicillin/streptomycin, and allowed to incubate at 37 degrees Celsius for 4 days. The test compound was dissolved in DMSO and added to a differentiation medium containing 0.1 ng/ml Agrin (550-AG-100; R&D systems) such that the final concentration was […] (3-fold serial dilution) or 0.00017 to 3.3 μM (3-fold serial dilution). The final concentration of DMSO was 0.3%. After the 4 days of incubation, the differentiation medium was replaced with a differentiation medium containing the test compound and 0.1 ng/ml Agrin or a differentiation medium containing 0.1 ng/ml Agrin or 10 ng/ml Agrin alone, and allowed to incubate at 37 degrees Celsius overnight. The next day, 10 μl of DMEM containing Bungarotoxin-Alexa488 (B13422; Life technologies) was added to the differentiation medium containing test compound and Agrin and Agrin alone so that the final concentration of Bungarotoxin-Alexa488 was 1 μg/ml, and was allowed to incubate at 37 degrees Celsius for 1 hour to label the acetylcholine receptor. After removing all the medium, 4% PFA was added to each well and allowed to incubate at room temperature for 10 minutes, then washed with PBS, and allowed to incubate at room temperature for 30 minutes in PBS containing 5% goat serum and 0.3% Triton X-100. After removing the PBS solution, PBS-Tween20 (28352; Thermo fisher scientific) containing Anti-Myosin Heavy Chain eFluor (registered trademark) 660 (50-6503-82; eBioscience) and DAPI (340-07971; Dojindo) was added to each well and allowed to incubate at room temperature for 1 hour to label the myotubes and nuclei. After washing three times with PBS-Tween20, the fluorescence was imaged using IN Cell Analyzer 6000 (GE Healthcare). […] The response of control group (1) was regarded as 0% and the response of the control group (2) was regarded as 100%. For quantification, the signal of only the acetylcholine receptor present in the myotube was used to eliminate non-specific fluorescence.
EC50 and Max value were used as indicators of activity in order to quantitatively evaluate the inducing action of the test compound on acetylcholine receptor clustering. EC50 value is a test compound concentration which indicates 50% in terms of the area of acetylcholine receptor cluster region compared to that of 10 ng/ml Agrin (regarded as 100%) in the concentration response curve. EC50 was calculated by nonlinear regression analysis from the concentration response curve using the area of the cluster region of the test compound as an index. Max value is the maximum response value. […]

Row | Structure (SMILES) | Emax [%] | EC50 [nM] | response, % at 1.1 μM (at 1.1 μM, vs 10 ng/ml Agrin (100%)) [% at 1.1 μM]
1 | Cc1cc(-c2c(F)cc(S(=O)(=O)N3CC[C@H](F)C3)cc2F)nc2cc(C(=O)O)ccc12 [Example 1, 2-{2,6-difluoro-4-[(3S)-3-fluoropyrrolidine-1-sulfonyl]phenyl}-4-methylquinoline-7-carboxylic acid] | 91.9 | 64 | –
2 | Cc1cc(-c2c(F)cc(S(=O)(=O)N3CCC(F)CC3)cc2F)nc2cc(C(=O)N3CC4(CN(C)C4)C3)ccc12 [Example 3, {2-[2,6-difluoro-4-(4-fluoropiperidine-1-sulfonyl)phenyl]-4-methylquinolin-7-yl}(6-methyl-2,6-diazaspiro[3.3]heptan-2-yl) methanone] | 91.8 | 2 | –
3 | Cc1cc(-c2c(F)cc(S(=O)(=O)N3CCC(F)CC3)cc2F)nc2cc(C(=O)N3CC(N)C3)ccc12 [Example 4, (3-aminoazetidin-1-yl) {2-[2,6-difluoro-4-(4-fluoropiperidine-1-sulfonyl)phenyl]-4-methylquinolin-7-yl}methanone] | 81 | 13 | –
4 | Cc1cc(-c2ccc(S(=O)(=O)N3CCC(F)CC3)cc2F)nc2cc(C(=O)O)ccc12 [Example 5, 2-[2-fluoro-4-(4-fluoropiperidine-1-sulfonyl)phenyl]-4-methylquinoline-7-carboxylic acid] | 86.8 | 95 | –
5 | Cc1cc(-c2c(F)cc(S(=O)(=O)N3CC[C@H](F)C3)cc2F)nc2nc(OCC(=O)O)ccc12 [Example 6, [(7-{2,6-difluoro-4-[(3S)-3-fluoropyrrolidine-1-sulfonyl]phenyl}-5-methyl-1,8-naphthyridin-2-yl)oxy]acetic acid] | 76.3 | 1820 | –
6 | Cc1cc(-c2ccc(S(=O)(=O)N3CC[C@H](F)C3)cc2F)nc2c(F)c(C(=O)O)ccc12 [Example 7, 8-fluoro-2-{2-fluoro-4-[(3S)-3-fluoropyrrolidine-1-sulfonyl]phenyl}-4-methylquinoline-7-carboxylic acid] | 78.4 | 1850 | –
7 | COc1cc(S(=O)(=O)N2CC[C@H](F)C2)cc(F)c1-c1cc(C)c2ccc(C(=O)O)nc2c1 [Example 8, 7-{2-fluoro-4-[(3S)-3-fluoropyrrolidine-1-sulfonyl]-6-methoxyphenyl}-5-methylquinoline-2-carboxylic acid] | 88.2 | 45 | –
8 | Cc1cc(-c2ccc(S(=O)(=O)N3CC[C@H](F)C3)cc2F)nc2cc(C(=O)NS(=O)(=O)C3CC3)ccc12 [Example 9, N-(cyclopropanesulfonyl)-2-{2-fluoro-4-[(3S)-3-fluoropyrrolidine-1-sulfonyl]phenyl}-4-methylquinoline-7-carboxamide] | 34.9 | – | 34.9
9 | CNCCNC(=O)c1ccc2c(C)cc(-c3c(F)cc(S(=O)(=O)N4CC[C@H](F)C4)cc3F)nc2c1 [Example 10, 2-{2,6-difluoro-4-[(3S)-3-fluoropyrrolidine-1-sulfonyl]phenyl}-4-methyl-N-[2-(methylamino)ethyl]quinoline-7-carboxamide hydrochloride] | 96.7 | 16 | –
10 | Cc1c(F)c(-c2c(F)cc(S(=O)(=O)N3CC[C@H](F)C3)cc2F)nc2cc(C(=O)N3CC(C)(C(=O)O)C3)ccc12 [Example 11, 1-(2-{2,6-difluoro-4-[(3S)-3-fluoropyrrolidine-1-sulfonyl]phenyl}-3-fluoro-4-methylquinoline-7-carbonyl)-3-methylazetidine-3-carboxylic acid] | 80.2 | 303 | –
11 | Cc1cc(-c2c(F)cc(S(=O)(=O)N3CC[C@H](F)C3)cc2F)nc2cc(C(=O)N[C@@H](CN)C(=O)O)ccc12 [Example 12, (2S)-3-amino-2-(2-{2,6-difluoro-4-[(3S)-3-fluoropyrrolidine-1-sulfonyl]phenyl}-4-methylquinoline-7-carboxamido) propanoic acid hydrochloride] | 69.7 | 268 | –
